# Measurements taken from ChEMBL document CHEMBL1201862, “PubChem BioAssay data set” (2004).
#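 96-well plates; 48 h exposure; 5 concentrations. Endpoints by linear interpolation between flanking doses. Not reached: highest tested concentration assigned. The concentration for 50% growth inhibition is given as GI50.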 Calls of active or inactive are those of the source. Cut-off read from the data, not from the text of the source: active = GI50 up to about 1.1 µM and inactive = higher.
# Columns and labels:
# Assay in all cases: growth of human tumour cells (NCI), 48 h
# [1] = system: 786-0
# [2] = system: A549
# [3] = system: DU-145
# [4] = system: EKVX
# [5] = system: HCT-116
# [6] = system: HL-60
# [7] = system: IGROV-1
# [8] = system: M14
# [9] = system: MDA-N
# [10] = system: MOLT-4
# [11] = system: Malme-3M
# [12] = system: NCI-H226
# [13] = system: NCI-H23
# [14] = system: OVCAR-4
# [15] = system: OVCAR-5
# [16] = system: RXF 393
# [17] = system: SK-OV-3
# [18] = system: SN12C
# [19] = system: UO-31
# [20] = system: NCI-H522
SMILES,GI50 [1],GI50 [2],GI50 [3],GI50 [4],GI50 [5],GI50 [6],GI50 [7],GI50 [8],GI50 [9],GI50 [10],GI50 [11],GI50 [12],GI50 [13],GI50 [14],GI50 [15],GI50 [16],GI50 [17],GI50 [18],GI50 [19],GI50 [20]
Cc1cc(S(=O)(=O)n2ccnc2Oc2cccc(Cl)c2)c(SSc2cc(Cl)c(C)cc2S(=O)(=O)n2ccnc2Oc2cccc(Cl)c2)cc1Cl,6.79 µM (inactive),7.06 µM (inactive),5.32 µM (inactive),4 µM (inactive),6.19 µM (inactive),4.18 µM (inactive),8.13 µM (inactive),7.89 µM (inactive),8.38 µM (inactive),4.14 µM (inactive),5.74 µM (inactive),6.37 µM (inactive),6.32 µM (inactive),9.57 µM (inactive),10.4 µM (inactive),3.08 µM (inactive),12.4 µM (inactive),8.87 µM (inactive),5.96 µM (inactive),
CN(CCc1ccccn1)C(=S)N/N=C(\c1ccccc1)c1ccccn1,0.0419 µM (active),< 0.0404 µM (active),1.41 µM (inactive),< 0.01 µM (active),< 0.01 µM (active),< 0.01 µM (active),< 0.01 µM (active),< 0.0394 µM (active),0.582 µM (active),< 0.01 µM (active),< 0.01 µM (active),,< 0.01 µM (active),0.0334 µM (active),1.05 µM (active),1.09 µM (active),< 0.01 µM (active),< 0.01 µM (active),0.0192 µM (active),< 0.01 µM (active)
COc1ccc(-c2nc(SCC(=O)N/N=C/c3ccc(O)c(OC)c3)[nH]c2-c2ccc(OC)cc2)cc1,19.8 µM (inactive),34.9 µM (inactive),39.8 µM (inactive),33.3 µM (inactive),17.9 µM (inactive),11.2 µM (inactive),,22.9 µM (inactive),22.1 µM (inactive),,37.8 µM (inactive),,21.9 µM (inactive),40.9 µM (inactive),27.8 µM (inactive),18.6 µM (inactive),29.4 µM (inactive),19.1 µM (inactive),34.7 µM (inactive),19.2 µM (inactive)
C/C=C1\C(=O)OC2CCN3CCC(COC(=O)C(C)(O)C(C)C1O)C23 (stereo not drawn),> 100 µM (inactive),> 100 µM (inactive),> 100 µM (inactive),> 100 µM (inactive),> 100 µM (inactive),> 100 µM (inactive),> 100 µM (inactive),> 100 µM (inactive),> 100 µM (inactive),> 100 µM (inactive),> 100 µM (inactive),> 100 µM (inactive),> 100 µM (inactive),> 100 µM (inactive),> 100 µM (inactive),,> 100 µM (inactive),> 100 µM (inactive),> 100 µM (inactive),> 100 µM (inactive)
O=C1c2ccccc2-c2c1c(-c1cccc(Br)c1)nc1ccc3ccccc3c21,> 100 µM (inactive),> 100 µM (inactive),> 100 µM (inactive),> 100 µM (inactive),> 100 µM (inactive),,,> 100 µM (inactive),> 100 µM (inactive),> 100 µM (inactive),> 100 µM (inactive),> 100 µM (inactive),> 100 µM (inactive),> 100 µM (inactive),> 100 µM (inactive),> 100 µM (inactive),> 100 µM (inactive),> 100 µM (inactive),> 100 µM (inactive),
COC(=O)C1C(OC(=O)c2ccccc2)CC2CCC1N2C(N)=O (stereo not drawn),> 100 µM (inactive),> 100 µM (inactive),> 100 µM (inactive),> 100 µM (inactive),> 100 µM (inactive),> 100 µM (inactive),> 100 µM (inactive),> 100 µM (inactive),> 100 µM (inactive),> 100 µM (inactive),> 100 µM (inactive),> 100 µM (inactive),> 100 µM (inactive),> 100 µM (inactive),> 100 µM (inactive),,> 100 µM (inactive),> 100 µM (inactive),> 100 µM (inactive),> 100 µM (inactive)
CCOC(=O)c1ccc2c(c1)Cc1cc([N+](=O)[O-])ccc1-2,86.5 µM (inactive),33.7 µM (inactive),> 100 µM (inactive),12.3 µM (inactive),59.4 µM (inactive),76.2 µM (inactive),10.6 µM (inactive),97.1 µM (inactive),48 µM (inactive),20.1 µM (inactive),> 100 µM (inactive),17.8 µM (inactive),32.4 µM (inactive),15.7 µM (inactive),57.4 µM (inactive),22.9 µM (inactive),29.6 µM (inactive),89.3 µM (inactive),30.4 µM (inactive),
CCOC(=O)N1CCC(=C2c3ccc(Cl)cc3CCc3cccnc32)CC1 [LORATADINE],15.2 µM (inactive),13.4 µM (inactive),11.5 µM (inactive),13.9 µM (inactive),11.2 µM (inactive),6.12 µM (inactive),1.79 µM (inactive),12.4 µM (inactive),4.55 µM (inactive),4.23 µM (inactive),5.94 µM (inactive),14.6 µM (inactive),15.8 µM (inactive),3.69 µM (inactive),20.8 µM (inactive),6.71 µM (inactive),15.5 µM (inactive),10.2 µM (inactive),1.64 µM (inactive),
CC(=O)Nc1ccc(Nc2nc(=O)[nH]c(=O)[nH]2)cc1,> 100 µM (inactive),> 100 µM (inactive),> 100 µM (inactive),> 100 µM (inactive),> 100 µM (inactive),> 100 µM (inactive),> 100 µM (inactive),> 100 µM (inactive),> 100 µM (inactive),,> 100 µM (inactive),> 100 µM (inactive),> 100 µM (inactive),> 100 µM (inactive),> 100 µM (inactive),,> 100 µM (inactive),> 100 µM (inactive),28.6 µM (inactive),> 100 µM (inactive)
CCOC(=O)c1ccc(NCc2ccc3nc(OC)c(OC)nc3c2)cc1,94.8 µM (inactive),> 100 µM (inactive),> 100 µM (inactive),> 100 µM (inactive),92.3 µM (inactive),47.8 µM (inactive),> 100 µM (inactive),> 100 µM (inactive),> 100 µM (inactive),> 100 µM (inactive),> 100 µM (inactive),> 100 µM (inactive),> 100 µM (inactive),88.7 µM (inactive),> 100 µM (inactive),,> 100 µM (inactive),> 100 µM (inactive),> 100 µM (inactive),> 100 µM (inactive)
O=C1N[C@@H]2c3c(csc3Br)C(=O)[C@@H]2O1,33.2 µM (inactive),51.9 µM (inactive),39.1 µM (inactive),30.4 µM (inactive),27.8 µM (inactive),24.3 µM (inactive),26.5 µM (inactive),37.3 µM (inactive),25.1 µM (inactive),19.9 µM (inactive),32 µM (inactive),,41.7 µM (inactive),,74 µM (inactive),15.5 µM (inactive),90.4 µM (inactive),42.5 µM (inactive),20.9 µM (inactive),30.1 µM (inactive)
CSc1ncnc2c1cnn2Cc1cnnn1COCC(O)CO (stereo not drawn),> 100 µM (inactive),> 100 µM (inactive),> 100 µM (inactive),> 100 µM (inactive),> 100 µM (inactive),> 100 µM (inactive),> 100 µM (inactive),> 100 µM (inactive),> 100 µM (inactive),> 100 µM (inactive),,> 100 µM (inactive),> 100 µM (inactive),> 100 µM (inactive),> 100 µM (inactive),,> 100 µM (inactive),> 100 µM (inactive),> 100 µM (inactive),11.1 µM (inactive)
CCOC(=O)c1cnc(-n2[nH]c(C)c(CCO)c2=O)[nH]c1=O,> 100 µM (inactive),> 100 µM (inactive),> 100 µM (inactive),> 100 µM (inactive),> 100 µM (inactive),> 100 µM (inactive),> 100 µM (inactive),> 100 µM (inactive),> 100 µM (inactive),> 100 µM (inactive),> 100 µM (inactive),> 100 µM (inactive),> 100 µM (inactive),> 100 µM (inactive),> 100 µM (inactive),> 100 µM (inactive),> 100 µM (inactive),> 100 µM (inactive),> 100 µM (inactive),
COC(=O)C1=C(C)NC(C)=C(C(=O)OC)C1c1ccccc1NO,> 100 µM (inactive),> 100 µM (inactive),> 100 µM (inactive),> 100 µM (inactive),21.9 µM (inactive),> 100 µM (inactive),> 100 µM (inactive),> 100 µM (inactive),,27.4 µM (inactive),> 100 µM (inactive),> 100 µM (inactive),> 100 µM (inactive),> 100 µM (inactive),> 100 µM (inactive),> 100 µM (inactive),> 100 µM (inactive),> 100 µM (inactive),> 100 µM (inactive),> 100 µM (inactive)
CC(C)(C)c1ccc(OCCOc2ccc(C(C)(C)C)cc2N)c(N)c1,29.9 µM (inactive),26.2 µM (inactive),> 100 µM (inactive),> 100 µM (inactive),> 100 µM (inactive),> 100 µM (inactive),38.5 µM (inactive),> 100 µM (inactive),,> 100 µM (inactive),22.2 µM (inactive),> 100 µM (inactive),27.6 µM (inactive),20 µM (inactive),> 100 µM (inactive),> 100 µM (inactive),> 100 µM (inactive),> 100 µM (inactive),> 100 µM (inactive),11.4 µM (inactive)
